The target of this series is ATP-dependent translocase ABCB1 (Mus musculus, UniProt P21447). Kind of series: TP_TRANSPORTER: increase in brain concentration in mdr1a(-/-) mouse. It counts as functional, organism-based. To be noted: in vivo.

The source of these data is ChEMBL document CHEMBL2074373, “Effect of the Mdr1a P-glycoprotein gene disruption on the tissue distribution of SDZ PSC 833, a multidrug resistance-reversing agent, in mice” (J Pharmacol Exp Ther, 1998).

SMILES strings stand for the structures.

Chain of ATP-dependent translocase ABCB1 (P21447 whole entry): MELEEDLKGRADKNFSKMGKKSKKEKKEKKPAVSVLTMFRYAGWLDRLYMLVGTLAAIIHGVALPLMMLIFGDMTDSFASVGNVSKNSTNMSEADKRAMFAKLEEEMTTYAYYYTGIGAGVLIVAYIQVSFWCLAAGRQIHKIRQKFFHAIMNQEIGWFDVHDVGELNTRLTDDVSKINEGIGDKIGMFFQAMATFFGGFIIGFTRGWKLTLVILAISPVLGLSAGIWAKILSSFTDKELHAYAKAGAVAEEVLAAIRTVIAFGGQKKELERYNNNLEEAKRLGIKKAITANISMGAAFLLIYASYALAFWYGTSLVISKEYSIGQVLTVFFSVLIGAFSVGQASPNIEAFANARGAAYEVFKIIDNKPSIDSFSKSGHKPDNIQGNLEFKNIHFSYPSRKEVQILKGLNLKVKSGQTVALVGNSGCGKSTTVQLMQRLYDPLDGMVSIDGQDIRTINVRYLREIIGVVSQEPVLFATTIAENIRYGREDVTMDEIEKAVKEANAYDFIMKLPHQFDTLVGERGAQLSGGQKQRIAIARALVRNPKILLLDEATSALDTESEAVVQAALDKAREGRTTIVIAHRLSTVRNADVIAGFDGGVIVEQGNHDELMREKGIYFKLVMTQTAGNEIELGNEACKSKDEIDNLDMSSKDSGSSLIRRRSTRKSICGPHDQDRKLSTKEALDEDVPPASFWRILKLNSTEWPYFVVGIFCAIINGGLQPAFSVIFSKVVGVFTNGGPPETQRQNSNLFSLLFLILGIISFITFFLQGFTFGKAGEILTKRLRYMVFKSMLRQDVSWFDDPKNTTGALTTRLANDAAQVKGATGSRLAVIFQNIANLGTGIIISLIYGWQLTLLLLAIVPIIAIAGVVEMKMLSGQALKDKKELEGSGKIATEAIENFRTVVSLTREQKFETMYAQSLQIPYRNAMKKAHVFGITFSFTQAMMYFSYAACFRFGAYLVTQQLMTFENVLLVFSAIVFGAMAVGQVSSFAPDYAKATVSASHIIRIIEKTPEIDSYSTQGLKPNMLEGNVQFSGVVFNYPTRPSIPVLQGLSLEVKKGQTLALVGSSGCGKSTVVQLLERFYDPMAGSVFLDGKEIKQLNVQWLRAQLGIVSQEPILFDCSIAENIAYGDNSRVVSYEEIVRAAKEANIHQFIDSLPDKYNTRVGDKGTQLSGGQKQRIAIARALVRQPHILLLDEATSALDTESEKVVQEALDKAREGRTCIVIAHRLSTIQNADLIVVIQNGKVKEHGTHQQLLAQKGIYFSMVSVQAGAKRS

Turning to `C/C=C/C[C@@H](C)C(=O)[C@H]1C(=O)N[C@@H](C(C)C)C(=O)N(C)CC(=O)N(C)[C@@H](CC(C)C)C(=O)N[C@@H](C(C)C)C(=O)N(C)[C@@H](CC(C)C)C(=O)N[C@@H](C)C(=O)N[C@H](C)C(=O)N(C)[C@@H](CC(C)C)C(=O)N(C)[C@@H](CC(C)C)C(=O)N(C)[C@@H](C(C)C)C(=O)N1C` [VALSPODAR], the Activity entry is “substrate [+]”.
